This is an account of results in patent US20220211692A1, “Modulators of the Cystic Fibrosis Transmembrane Conductance Regulator Protein and Methods of Use” (AbbVie Global Enterprises Ltd., priority 2021, published 2022).

Where two headings read alike, the source gives them in different places.

Assay [1] addresses T1, F508delCFTR (Homo sapiens, UniProt P13569, DEL508-508).
T1 construct: expressed in transfected cells; host or cells: CFBE41o- human lung derived epithelial cell line, doxycycline-induced expression
The assay can be described thus: Cell Surface Expression-Horse Radish Peroxidase (CSE-HRP) assay in CFBE41o-F508delCFTR-HRP cells. As to conditions: for EC50: CFBE41o-F508delCFTR-HRP cells, 18-24 hours at 33° C.; for Emax / Maximum % activity (with co-corrector): normalized to on-plate positive control; for Emax: read-out: Maximum % activity (without co-corrector). Type of assay: cell-based. The protocol:
A cellular assay for measuring the F508delCFTR cell surface expression after correction with test compounds either without or with a co-corrector (2 μM of 3-[(2R,4R)-4-({[1-(2,2-difluoro-1,3-benzodioxol-5-yl)cyclopropyl]carbonyl}amino)-7-methoxy-3,4-dihydro-2H-chromen-2-yl]benzoic acid), was developed in human lung derived epithelial cell line (CFBE41o-) (Veit G et al, (2012) Mol Biol Cell. 23(21): 4188-4202). The development was achieved by expressing the F508delCFTR mutation along with a horseradish peroxidase (HRP) in the fourth exofacial loop, and then measuring the HRP activity using luminescence readout from these cells, CFBE41o-F508delCFTR-HIRP, that were incubated overnight with the test corrector compounds, either without or with the co-corrector. For this primary assay, the CFBE41o-F508delCFTR-HRP cells were plated in 384-well plates (Greiner Bio-one; Cat 781080) at 4,000 cells/well along with 0.5 μg/mL doxycycline to induce the F508delCFTR-HRP expression and further incubated at 37° C., […] for 68-72 hours. The test compounds were then added either without or with a co-corrector at the required concentrations and further incubated for 18-24 hours at 33° C. The highest concentration tested was 20 μM or 30 μM (GI-1 to GIII-36) with an 8-point concentration response curve using a 3-fold dilution in both the test compound without or with the co-corrector. Three replicate plates were run to determine one EC50. All plates contained negative controls (dimethyl sulfoxide, DMSO) and positive control (2 μM or 3 μM (GI-1 to GIII-36) of 3-[(2R,4R)-4-({[1-(2,2-difluoro-1,3-benzodioxol-5-yl)cyclopropyl]carbonyl}amino)-7-methoxy-3,4-dihydro-2H-chromen-2-yl]benzoic acid) as well as on-plate concentration response of the positive control. Post incubation, the plates were washed 5× times with Dulbecco's phosphate buffered saline (DPBS), followed by the addition of the HRP substrate, luminol (50 μL), and measuring the HRP activity using luminescence readout on EnVision® Multilabel Plate Reader (Perkin Elmer; product number 2104-0010). The raw counts from the experiment were analyzed using Accelrys® Assay Explorer v3.3.
Z′ greater than 0.5 was used as passing quality control criteria for the plates. The Z′ is defined as:
1−[3*SDPositive Control+3*SDNegative Control/Absolute(MeanPositive Control−MeanNegative Control)]
The % activity measured at each of the 8 test concentrations of the test compound added either without or with a co-corrector (2 μM or 3 μM (GI-1 to GIII-36) of 3-[(2R,4R)-4-({[1-(2,2-difluoro-1,3-benzodioxol-5-yl)cyclopropyl]carbonyl}amino)-7-methoxy-3,4-dihydro-2H-chromen-2-yl]benzoic acid) was normalized to the on-plate positive control using the following formulae:
% activity (Test compound without co-corrector)=[(test compound without co-corrector response−DMSO response)/(positive control response−DMSO response)]*100
% activity (Test compound with co-corrector)=[(test compound with co-corrector response−DMSO response)/(positive control response−DMSO response)]*100
The maximum % activity achieved for the test compound either without or with a co-corrector at any tested concentration is presented in Table 3 along with the respective EC50's calculated using the following general sigmoidal curve with variable Hill slope equation (described as Model 42 in the Accelrys® Assay Explorer v3.3 software):
General sigmoidal curve with concentration, response, top, bottom, EC50 and Hill slope. This model describes a sigmoidal curve with an adjustable baseline, a. The equation can be used to fit curves where response is either increasing or decreasing with respect to the independent variable, “x”.

In assay [2] the target is T2, F508del/F508del CFTR (Homo sapiens, UniProt P13569, DEL508-508).
T2 construct: cells isolated from CF patients with the homozygous mutation; endogenous in cells; host or cells: primary human bronchial epithelial (hBE) cells from CF patients homozygous for F508del
The assay can be described thus: Trans-Epithelial Current Clamp (TECC) assay using primary human bronchial epithelial cells. Type of assay: cell-based. As to conditions: for Emax (% Dual): maximum percent activity relative to positive control (co-corrector 0.15 μM + potentiator 0.45 μM = 100%); for EC50: primary hBE cells F508del/F508del, test corrector with co-corrector and potentiator, 18-24 hours, equivalent CFTR current. The text has this: A cell-based assay was developed using the primary human bronchial epithelial cells (hBE cells) with F508del/F508del CFTR and other mutations.
Primary human bronchial epithelial (hBE) cells from CFTR patients with homozygous F508del/F508del mutation were expanded from 1×10^6 to 250×10^6 cells (Neuberger, T et al., 2011, Methods Mol Biol 741:39-54). For this purpose, cells isolated from CF patients with the homozygous mutation, procured from the CF center tissue procurement and cell culture core at the Marsico Lung Institute at UNC (Randell), the Cystic Fibrosis translational research center at McGill University (University), and Rosalind Franklin University Medical School (RFUMS) were seeded onto 24 well Corning (Cat #3378) filter plates that were coated with 3T3 conditioned media and grown at an air-liquid interface for 35 days using an Ultroser® G supplemented differentiation media. All the primary human bronchial epithelial cells were collected in accordance with institutional review board approval protocols. Apical surface mucus was removed 72 hours before the experiment by incubating the apical surface of the cells for 30 minutes with 3 mM dithiothreitol (DTT) prepared in Dulbecco's phosphate buffered saline (DPBS) with Ca^2+ and Mg^2+. This was followed with aspiration of the mucus from the apical surface along with DPBS. The apical surface was re-washed with phosphate buffered saline (PBS) incubated for 30 minutes followed with aspiration. These hBE cells were then incubated with the desired concentrations of the test C2 corrector compounds along with co-corrector, 4-[(2R,4R)-4-({[1-(2,2-difluoro-1,3-benzodioxol-5-yl)cyclopropyl]carbonyl}amino)-7-(difluoromethoxy)-3,4-dihydro-2H-chromen-2-yl]benzoic acid and potentiator, (5-{3-amino-5-[4-(trifluoromethoxy)benzene-1-sulfonyl]pyridin-2-yl}-1,3,4-oxadiazol-2-yl)methanol, for 18-24 hours at 37° C., 5% CO2. The desired concentrations of the correctors and potentiator compounds were prepared from the 10 mM stocks in differentiation media and were always applied on the basolateral side of the epithelial cells. We also used an assay format where a fixed concentration of potentiator was added chronically along with the corrector compounds. This chronic treatment with the potentiator helped eliminate any interaction that might happen with CFTR modulators (correctors and potentiators) and thereby determined the true efficacy of the modulator combinations reflective of clinical relevance.
The assay uses a Transepithelial Current Clamp (TECC) (Vu, C B et al., 2017; J Med Chem 60:458-473) instrument that can measure the functionality of the mutated channel by measuring the equivalent CFTR current (IEQ) generated by the polarized primary epithelial cells. We used a TECC-24 with a 24-channel electrode manifold allowing for the simultaneous measurement of the transepithelial voltage, VT, and transepithelial resistance, RT, under current clamp conditions, from 24 filters using a 24 well Costar filter plate. The design of the filters in the 24 well filter plates was exactly the same as the design of an individual Transwell filter used in the classical Ussing Chamber with a surface area of 0.33 cm^2. Each measured VT values were corrected for the electrode offset potential measured using buffer alone in a separate plate, and each measured RT values were then corrected for the combined solution series and empty filter resistances. The corrected VT and RT values were then used to calculate the equivalent current, IEQ using Ohm's law (IEQ=VT/RT). The area under the curve (AUC) for the time period between the forskolin peak IEQ response and at the time of bumetanide addition was also calculated using a one-third trapezoid method, in addition to calculating the IEQ. The assay was run in a 24-well format and all 24-wells were measured at the same time point giving a higher throughput for this assay. […]

Where [3] appears, read: with co-corrector 2 μM, read-out: EC50 (with co-corrector).
Where [4] appears, read: without co-corrector, read-out: EC50 (without co-corrector).

T2 sequence (P13569 with tags, fused parts or gaps DEL508-508): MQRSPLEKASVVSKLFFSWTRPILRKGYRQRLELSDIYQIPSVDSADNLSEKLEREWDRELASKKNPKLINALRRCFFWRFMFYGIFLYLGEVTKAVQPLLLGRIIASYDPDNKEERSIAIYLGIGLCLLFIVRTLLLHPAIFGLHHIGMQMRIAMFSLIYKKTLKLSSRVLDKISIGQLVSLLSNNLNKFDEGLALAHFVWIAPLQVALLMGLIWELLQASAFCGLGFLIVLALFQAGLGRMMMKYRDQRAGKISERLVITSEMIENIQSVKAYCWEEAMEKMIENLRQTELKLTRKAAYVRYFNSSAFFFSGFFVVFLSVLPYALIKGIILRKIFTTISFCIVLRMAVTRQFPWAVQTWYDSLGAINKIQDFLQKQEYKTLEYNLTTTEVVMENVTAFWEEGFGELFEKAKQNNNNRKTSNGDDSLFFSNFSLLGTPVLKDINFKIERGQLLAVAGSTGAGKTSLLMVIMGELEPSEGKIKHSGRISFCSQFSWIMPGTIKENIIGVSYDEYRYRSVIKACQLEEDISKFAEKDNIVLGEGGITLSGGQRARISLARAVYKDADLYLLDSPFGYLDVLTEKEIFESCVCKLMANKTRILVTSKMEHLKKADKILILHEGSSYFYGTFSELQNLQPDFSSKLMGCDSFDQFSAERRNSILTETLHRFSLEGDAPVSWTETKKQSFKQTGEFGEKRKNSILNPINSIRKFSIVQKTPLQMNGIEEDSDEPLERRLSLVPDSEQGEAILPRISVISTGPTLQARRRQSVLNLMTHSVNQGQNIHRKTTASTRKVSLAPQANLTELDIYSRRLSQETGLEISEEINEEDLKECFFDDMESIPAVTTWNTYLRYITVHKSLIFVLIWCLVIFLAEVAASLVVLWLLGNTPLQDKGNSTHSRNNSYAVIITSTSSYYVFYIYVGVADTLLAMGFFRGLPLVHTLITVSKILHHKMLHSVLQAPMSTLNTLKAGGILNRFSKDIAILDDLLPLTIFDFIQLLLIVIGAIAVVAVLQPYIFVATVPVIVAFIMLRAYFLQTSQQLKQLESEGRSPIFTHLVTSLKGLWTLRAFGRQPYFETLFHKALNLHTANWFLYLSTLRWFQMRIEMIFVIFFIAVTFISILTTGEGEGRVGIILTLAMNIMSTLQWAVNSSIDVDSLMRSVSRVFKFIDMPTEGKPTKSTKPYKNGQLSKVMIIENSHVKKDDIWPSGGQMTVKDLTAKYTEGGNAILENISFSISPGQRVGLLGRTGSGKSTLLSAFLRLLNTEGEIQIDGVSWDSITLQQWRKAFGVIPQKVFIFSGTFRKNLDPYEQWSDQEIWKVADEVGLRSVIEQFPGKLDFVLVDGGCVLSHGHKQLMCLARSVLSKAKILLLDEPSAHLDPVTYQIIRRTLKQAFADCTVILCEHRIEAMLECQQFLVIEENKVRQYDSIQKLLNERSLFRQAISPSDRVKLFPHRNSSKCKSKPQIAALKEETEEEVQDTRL
T1 sequence (P13569 with tags, fused parts or gaps DEL508-508): as above

In the case of `CCOc1ccc(C)cc1[C@@]1(C(=O)NS(=O)(=O)c2cccc3nc(C)ccc23)CCCO1` (single isomer, unassigned) [Example 2], the 50% effective concentration (EC50) in assay [1] (setting [3]) was 780 nM; in assay [1] (setting [4]) it was 1540 nM; in assay [2], 82.5 nM. Moreover, the Emax in assay [1] (without co-corrector) was found to be 602%. Moreover, in assay [2], the “Emax (% Dual)” value is reported as 318 % Dual.

Consider `COc1ccc(C)cc1C1(C(=O)NS(=O)(=O)c2cccc3nc(C)ccc23)CCC(c2ccccc2)O1` (stereo in doubt) [Example 7, (2S,5S)-2-(2-methoxy-5-methylphenyl)-N-(2-methylquinoline-5-sulfonyl)-5-phenyloxolane-2-carboxamide], for which the results for the EC50 in assay [1] (setting [3]), in assay [1] (setting [4]) and in assay [2] were 330 nM, 530 nM and 11.7 nM, respectively. Besides, the Emax in assay [1] (without co-corrector) turned out to be 509%. For the same compound, the “Emax (% Dual)” value in assay [2] is reported as 283 % Dual.

Turning to `CCc1ccc(OCC(C)OC)c([C@@]2(C(=O)NS(=O)(=O)c3cccc4nc(C)ccc34)CCCO2)c1` (stereo in doubt) [Example 14, (2R)-2-{5-ethyl-2-[(2S)-2-methoxypropoxy]phenyl}-N-(2-methylquinoline-5-sulfonyl)oxolane-2-carboxamide], the EC50 in assay [1] (setting [3]) was found to be 2540 nM; in assay [1] (setting [4]) it was 3490 nM; in assay [2], 244 nM. Further, the “Maximum % activity (with co-corrector)” value in assay [1] (with co-corrector 2 μM) was determined as 871%. Besides, the Emax in assay [1] (without co-corrector) is 334%. The “Emax (% Dual)” value in assay [2] is 161 % Dual.

As for `CCOc1ccc(C)cc1[C@]1(C(=O)NS(=O)(=O)c2cccc3nc(C)ccc23)CCCO1` [Example 1, (2S)-2-(2-ethoxy-5-methylphenyl)-N-(2-methylquinoline-5-sulfonyl)oxolane-2-carboxamide], the 50% effective concentration (EC50) worked out at 3780 nM in assay [1] (setting [3]), 4940 nM in assay [1] (setting [4]) and 1710 nM in assay [2]. Also, in assay [1] (with co-corrector 2 μM), the “Maximum % activity (with co-corrector)” value came out at 546%. Besides, the Emax in assay [1] (without co-corrector) is 233%. In assay [2], the “Emax (% Dual)” value stood at 226 % Dual.

On to `COc1ccc(C)cc1[C@@]1(C(=O)NS(=O)(=O)c2cccc3nc(C)ccc23)CC(C)(C)CO1` [Example 5, (2R)-2-(2-methoxy-5-methylphenyl)-4,4-dimethyl-N-(2-methylquinoline-5-sulfonyl)oxolane-2-carboxamide], for which the EC50 in assay [1] (setting [3]) was found to be 1210 nM; in assay [1] (setting [4]), 2270 nM; in assay [2], 7.8 nM. In addition, the “Emax (% Dual)” value in assay [2] is reported as 242 % Dual.

For the compound `CCOc1ccc(C)cc1[C@@]1(C(=O)NS(=O)(=O)c2cccc3nc(C4CC4)ccc23)CCCO1` [Example 6, (2R)—N-(2-cyclopropylquinoline-5-sulfonyl)-2-(2-ethoxy-5-methylphenyl)oxolane-2-carboxamide], the results for the EC50 in assay [1] (setting [3]), in assay [1] (setting [4]) and in assay [2] were 1000 nM, 1360 nM and 19.5 nM, respectively. The Emax in assay [1] (without co-corrector) was determined as 712%. Besides, in assay [2], the “Emax (% Dual)” value is 235 % Dual.

On to `CCc1ccc(Oc2cccnc2OC)c(C2(C(=O)NS(=O)(=O)c3cccc4nc(C)ccc34)CCCO2)c1` (centres unmarked) [Example 18, 2-{5-ethyl-2-[(2-methoxypyridin-3-yl)oxy]phenyl}-N-(2-methylquinoline-5-sulfonyl)oxolane-2-carboxamide], for which, in assay [2], the “Emax (% Dual)” value amounted to 152 % Dual and the EC50 was more than 800 nM.

For the compound `COc1ccc(C)cc1[C@@]1(C(=O)NS(=O)(=O)c2cccc3nc(C)ccc23)C[C@@H](c2ccccc2)CO1` [Example 32, (2R,4S)-2-(2-methoxy-5-methylphenyl)-N-(2-methylquinoline-5-sulfonyl)-4-phenyloxolane-2-carboxamide], in assay [2], the “Emax (% Dual)” value is 263 % Dual and the concentration giving a half-maximal response (EC50) turned out to be 20.8 nM.

Turning to `COc1ccc(C)cc1[C@]1(C(=O)NS(=O)(=O)c2cccc3nc(N)ccc23)CC(C)(C)CO1` [Example 34, (2S)—N-(2-aminoquinoline-5-sulfonyl)-2-(2-methoxy-5-methylphenyl)-4,4-dimethyloxolane-2-carboxamide], in assay [2], the “Emax (% Dual)” value was found to be 284 % Dual and the 50% effective concentration (EC50) turned out to be 34.6 nM.

`COc1ccc(C)cc1[C@@]1(C(=O)NS(=O)(=O)c2cccc3nc(N)ccc23)CC(C)(C)CO1` [Example 35, (2R)—N-(2-aminoquinoline-5-sulfonyl)-2-(2-methoxy-5-methylphenyl)-4,4-dimethyloxolane-2-carboxamide]: in assay [2], the “Emax (% Dual)” value is listed as 248 % Dual and the 50% effective concentration (EC50) worked out at 443 nM.

For `COc1cccc([C@H]2CO[C@@](C(=O)NS(=O)(=O)c3cccc4nc(C)ccc34)(c3cc(C)ccc3OC)C2)c1` [Example 43, (2R,4S)-2-(2-methoxy-5-methylphenyl)-4-(3-methoxyphenyl)-N-(2-methylquinoline-5-sulfonyl)oxolane-2-carboxamide], in assay [2], the “Emax (% Dual)” value was 216 % Dual and the half-maximal effective concentration (EC50) is 59.9 nM.
